Series [1] concerns MCF7 cells. Description: MTT assay (mitochondrial SDH activity), MCF7 cells. It is filed as cell-based, human. The conditions noted are these: 50 μM EGCG.
Procedure: MTT (3-(4,5-dimethylthiazol-2-yl)-2,5-diphenyl tetrazolium bromide) assay. This method detects the activity of mitochondrial succinate dehydrogenase (SDH). In a 96-well plate, 1.5×10^4 cells were seeded in each well. After variety of treatments, 100 μl of 2% MTT was added to each well and the plate was incubated at 37° C. for 30 minutes. 100 μl of 0.2 M Tris (pH 7.7) with 4% formalin was added to each well. After incubation at room temperature for 5 minutes, liquid was removed and the wells were allowed to dry. Each well was rinsed with 200 μl water followed by addition of 100 μl DMSO (6.35% 0.1 N NaOH in DMSO) to each well. The coloration was measured by a Thermo MAX microplate reader (Molecular Devices Corp. Sunnyvale, Calif. using wavelengths of 562 nm. Experiments were repeated three times with triplicate samples for each experiment.
For series [2] the following is noted: daily topical 30 mg/ml EGCG for 30 days; cited from earlier work.
In a further series the test system is OSC-4 cells. The series is described as follows: Intracellular ROS levels (DFDA assay), OSC-4 cells. Type of series: cell-based, human. The note with it: for intracellular ROS levels vs control: 120 minute time point. The method, then: (§1) Measurement of intracellular ROS levels. The ROS assay measures the accumulation of intracellular ROS levels. The non-fluorescent dye DFDA passively diffuses into cells, where the acetates are cleaved by intracellular esterases. […] Thus, values of the fluorescence in the cell cultures are constantly rising in this assay. Cells (1.5×10^4 cells/well) were incubated with Hallam's physiological saline (HPS) containing DFDA (10 μM) in a 96-well microplate for 30 minutes at 37° C. After the incubation, cells were washed three times with HPS and then incubated with HPS containing EGCG (15-200 μM) or diamide (5 mM) for the indicated time periods. The intracellular ROS levels were measured by using a fluorescence plate reader (BIO-TEK FL600, Bio-Tek Instruments, Inc., Winooski, Vt.), at an excitation wavelength of 485 nm and an emission wavelength of 530 nm.
as §1, with “assay (DFDA assay)” for “assay”, “dye dichlorofluorescein diacetate (DFDA)” for “dye DFDA”, “this assay due to the accumulation of ROS.” for “this assay.”, “EGCG (50-200” for “EGCG (15-200”, “indicated times.” for “indicated time periods.”

Another series deals with OSC-GFP cells and NHEK. The series is described as follows: Co-culture of OSC-GFP cells and NHEK, double fluorescence. Type of series: cell-based, human. The conditions noted are these: overlay co-culture, 100 μM EGCG, 24 hour. The method, then: Co-culture and GTPP treatment. Various patterns of co-culture of the tumor/normal cells were achieved by different designs. Examples include:
1. Adjacent co-culture design. OSC-GFP cells (5×10^4) were seeded in the center of a culturing device (8-well chamber-slide, Nagle Nunc International, Naperville, Ill.) through a cloning cylinder (Fisher Scientific/Scienceware, Tapered Design, 4.7×8 mm) in DMEM/F12 medium and allowed to attach for 24 hours. NHEK (10^5) in KGM-2 were then seeded in the area next to the cylinder. After 24 hours, the cylinder was removed and the medium was replaced by a 50/50 mix of KGM-2 and DMEM/F12 and the cells were allowed to grow for another 24 hours prior to treatment (FIG. 21, right).
2. Overlay design, which could be adapted for high throughput screening in 96 well plate. […]
4. Tumor cell migration was monitored by co-culturing OSC-GFP and NHEK in wells of a 24 well plate as indicated in “1”, except the NHEK cell number was doubled. After treatment, tumor cell migration into NHEK territory was recorded by fluorescent microscopy at selected time points. […]
Immunofluorescence and photography. […] Fluorescence was generated by a ZEISS AttoArc 2 source. […]
The total fluorescence intensities of images were quantified using the BIOQUANT NOVA PRIME 6.0 software (Bioquant Co., Nashville, Tenn.). […]

Series [3] concerns MCF7 cells. The series is described as follows: BrdU incorporation assay, MCF7 cells. Type of series: cell-based, human. The note with it: increasing EGCG. The method, then:
DNA synthesis analysis using BrdU incorporation method. The BrdU cell proliferation kit was purchased from Oncogene Research Products, Boston, Mass. Cells were culture in 96 well plates with 10^4 cells/well. After EGCG and GTPPs treatments, cells were labeled by BrdU, reacted with BrdU antibody and the color reaction was carried out according to the protocol provided by the manufacturer. The coloration was measure by a Thermo MAX microplate reader using wavelengths 450 nm-562 nm.

For series [4], the system named is MCF7 cells. Description: Cell growth assay, MCF7 cells. Type of series: cell-based, human. The conditions noted are these: 50 μM EGCG, 96 hours. Here is the method: Cell growth assay. MCF7 cells were seeded (5×10^4) in 25 cm^2 tissue culture flask for 24 hours prior to EGCG or GTPPs incubation. Cells from each flask were trypsinized and counted at each time point on a hemacytometer.

Consider `O=C(O[C@@H]1Cc2c(O)cc(O)cc2O[C@@H]1c1cc(O)c(O)c(O)c1)c1cc(O)c(O)c(O)c1` [EGCG, (−)-epigallocatechin-3-gallate], for which the “mitochondrial SDH activities” value in the series with MCF7 cells [1] is listed as “significantly decreased”. Further, the dermal toxicity entry in series [2] is on record as “failed to induce dermal toxicity”. In the series on OSC-4 cells (50 μM EGCG, 60 minute exposure), the “intracellular ROS levels vs controls” value is “remained comparable to the controls”. Besides, the “intracellular ROS levels vs control” value in the series with OSC-4 cells (50 μM EGCG) is “ROS levels identical to the control cells”; with OSC-4 cells (200 μM EGCG) it was “remained higher than the control cells”. Besides, the “time at which rate of ROS production peaked” value in the series on OSC-4 cells (EGCG) was found to be 60 min. In addition, the “H2O2 concentration producing ROS equivalent to 200 μM EGCG” value in the series with OSC-4 cells (first hour) was determined as 100 µM. Besides, the “ratio of fluorescence intensities of rhodamine (red)/FITC (green)” value in the series on OSC-GFP cells and NHEK amounted to 1.23. Further, in the series with MCF7 cells [3], the BrdU incorporation entry is on record as “able in incorporate BrdU efficiently”. In addition, the “cell number compared to untreated cultures” value with MCF7 cells [4] is “only an insignificant decrease in cell number”.

The values are drawn from US20040191842A1, “Chemopreventive and therapeutic aspects of polyphenolic compositions and assays” (Medical College of Georgia Research Institute, Inc., priority 2002, published 2004).
